# Assay results from PMC7575509, “Phase I study of DFP-11207, a novel oral fluoropyrimidine with reasonable AUC and low Cmax and improved tolerability, in patients with solid tumors” (Investigational New Drugs, 2020).
# Entries after “also recorded” stand apart in the source; their conditions may differ.
# Legend:
# [1] = Urine pharmacokinetics, Phase I Study; type: in vivo, human (patients); details: Cycle 1, 0–48 hours after the DFP-11207 dose of 330 mg/m^2/day
# [2] = Plasma pharmacokinetics, Food Effect Study (fed vs fasted); details: for detectability in plasma during fed and fasted dosing: 6 patients
# [3] = Plasma pharmacokinetics, Phase I Study (LC-MS/MS of DFP-11207 metabolites); details: for AUC(0-t) / Cmax / Tmax / concentration at 2 day (Cycle 1): human, po
# [4] = ref 18 (capecitabine), 19 (UFT), 20 (S-1); cited from earlier work
Compound,urinary excretion [1] [%],5-FU Cmax at steady state ([3]; DFP-11207 330 mg/m^2/day orally every 12 hours) [ng/mL],"AUC(0-t) ([3]; plasma, 330 mg/m2) [ng·h/mL]","Cmax ([3]; plasma, 330 mg/m2) [ng/mL]","Tmax ([3]; plasma, 330 mg/m2) [h]","concentration at 2 day (Cycle 1) ([3]; plasma, 330 mg/m^2/day) [ng/mL]","Cmax ([3]; plasma, 440 mg/m2) [ng/mL]","Tmax ([3]; plasma, 440 mg/m2) [h]","concentration at 2 day (Cycle 1) ([3]; plasma, 440 mg/m^2/day) [ng/mL]",blood concentrations maintained throughout the dose cycle ([3]; oral DFP-11207 at 330 and 440 mg/m^2/day),"AUClast, Mean (SD) ([3]; plasma, Day 1, oral DFP-11207 440 mg/m^2)",detectability in plasma during fed and fasted dosing ([2]; DFP-11207 300 mg twice daily),"AUC(0-t) ([3]; plasma, 440 mg/m2) [ng·h/mL]","difference in plasma levels (Cmax or AUClast) between fasted and fed conditions ([2]; DFP-11207 300 mg twice daily, patients serving as their own controls)",difference in plasma levels (Cmax or AUClast) between fasted and fed conditions ([2]; in vivo),primary dose-limiting toxicity [4]
"O=c1[nH]cc(F)c(=O)[nH]1 [5-FU, 5-fluorouracil, reference compound]",0.12,< 25,220,9.65,24,4.01 to 25.5,8.75,12,3.39 to 13,approximately 20 ng/mL,3; 311 (214) ng·h/mL,–,–,–,no influence; also recorded: no clear differences,–
CCCCCOC(=O)Nc1nc(=O)n([C@@H]2O[C@H](C)[C@@H](O)[C@H]2O)cc1F [capecitabine],–,–,–,–,–,–,–,–,–,–,–,–,–,–,–,hand-foot syndrome
"CCOCn1cc(F)c(=O)[nH]c1=O [EM-FU, 1-ethoxymethyl-5-fluorouracil]",0.71,–,39900,1310,48,559 to 1380,1400,24,948 to 1770,–,–,detectable in plasma at all time points,49400,–,–,–

# The next lines start with results.
urinary excretion [1] [%],5-FU Cmax at steady state ([3]; DFP-11207 330 mg/m^2/day orally every 12 hours) [ng/mL],"AUC(0-t) ([3]; plasma, 330 mg/m2) [ng·h/mL]","Cmax ([3]; plasma, 330 mg/m2) [ng/mL]","Tmax ([3]; plasma, 330 mg/m2) [h]","concentration at 2 day (Cycle 1) ([3]; plasma, 330 mg/m^2/day) [ng/mL]","Cmax ([3]; plasma, 440 mg/m2) [ng/mL]","Tmax ([3]; plasma, 440 mg/m2) [h]","concentration at 2 day (Cycle 1) ([3]; plasma, 440 mg/m^2/day) [ng/mL]",blood concentrations maintained throughout the dose cycle ([3]; oral DFP-11207 at 330 and 440 mg/m^2/day),"AUClast, Mean (SD) ([3]; plasma, Day 1, oral DFP-11207 440 mg/m^2)",detectability in plasma during fed and fasted dosing ([2]; DFP-11207 300 mg twice daily),"AUC(0-t) ([3]; plasma, 440 mg/m2) [ng·h/mL]","difference in plasma levels (Cmax or AUClast) between fasted and fed conditions ([2]; DFP-11207 300 mg twice daily, patients serving as their own controls)",Compound,difference in plasma levels (Cmax or AUClast) between fasted and fed conditions ([2]; in vivo),primary dose-limiting toxicity [4]
1.98,–,2410,90.4,24,–,93.6,26,–,–,–,detectable in plasma at all time points,2810,–,"Oc1cc(O)c(Cl)cn1 [CDHP, 5-chloro-2,4-dihydroxypyridine]",–,–
0.07,–,254,9.81,8,–,9.72,4,–,–,–,–,388,no clear differences,"O=C(O)c1cc(O)nc(O)c1 [CTA, citrazinic acid]",–,–
